Four compounds from patent US6358700B2, “Method for detecting microorganisms by fluorescent staining using hydrostatic pressure” (Japan Marine Science and Technology Center, priority 1998, dated 2002) can be followed below.

In experiment [1] the test system is IFO2347 strain. The experiment in a line: Dependency on glucose metabolism of pressure-induced CDCF accumulation. Particulars: Saccharomyces cerevisiae, MBA buffer with 100 mM D-glucose, 10 μM CDCFDA, FIG. 4B, read-out: concentration at which half-maximal inhibition of pressure-induced CDCF accumulation occurred. It counts as cell-based. As to the method: Cells originated fiom a log-phase culture (2×10^7 to 4×10^7 cells/ml) were incubated with 10 μM CFDA (Sigma, Cat. No. C-5041) in YPD containing 50 mM citric acid (pH 3.0), or 10 μM CDCFDA Molecular Probe, Cat. No. C-369) in YPD containing 50 mM citric acid (pH 5.0), respectively, under varying hydrostatic pressures ranging from ordinary pressure to 60 MPa. To analyze the dependence, on glucose, of pressure-induced dye-accumulation, vegetative cells were collected, washed twice in distilled water and starved for 30 min on ice. […]
To analyze the effect of 2-deoxyglucose, cells were incubated with CDCFDA in MBA buffer containing 100 mM D-glucose. […] Fluorescence of the labeled cells emitted at 535 nm with excitation at 485 nm was detected using CytoFluor 2350 Plate Reader (available from Mlipore), or an RF5300PC spectrofluorometer (available from Shimazu, Japan). Fluorescence intensity (a. u.; arbitrary units) was recorded as the fluorescence of labeled cells minus the fluorescence of non-labeled cells for 10^7 cells.
The cells of the strain were cultured at 24° C. for one hour in MBA buffer containing a desired amount of D-glucose at a predetermined hydrostatic pressure (0.1 MPa (◯), 30 MPa (●)) in the presence of 10 μM CDCFDA. The labeled cells were analyzed using CytoFluor 2350. […]

The test system of experiment [2] is IFO2347 strain. The experiment in a line: Flow cytometry of CDCFDA-labeled cells. It counts as cell-based, Saccharomyces cerevisiae. As to conditions: for mean fluorescence of labeled cells / peak fluorescence of labeled cells: 10 μM CDCFDA, 24° C., one hour. The method, then:
Cells were incubated with 10 μM CFDA or 10 μM CDCFDA and cultivated under several hydrostatic pressures for one hour. After decompression, the labeled (or stained) cells were washed twice with distilled water and re-suspended in MB buffer. The cells were analyzed using the Bryte-HS Flow Cytometry System (available from Bio-Rad) under ordinary pressure.
The IFO2347 strain was cultured at 24° C. for one hour in the presence of 10 μM CDCFDA, under a hydrostatic pressure of 0.1, 30 or 60 MPa. The CDCFDA-labeled cells (about 100,000) were analyzed using the Bryte-HS Flow Cytometry System. FIG.2A depicts the histograms showing the intensity distribution of populations of IFO2347 cells labeled with CDCFDA observed after the cultivation.
For orientation: In flow cytometry, cells or beads pass a laser one at a time.

In another experiment the test system is IFO10159 strain. As to the kind of experiment: Accumulation of CF and CDCF under elevated hydrostatic pressure (CytoFluor 2350). Particulars: ordinary pressure; for total fluorescence intensity of labeled cells: 10 μM dye, one hour. It counts as cell-based, Saccharomyces cerevisiae. The method, then: (§1) Cells of Saccharomyces cerevisiae were grown in YPD (1% yeast extract, 2% bactopeptone, 2% D-glucose) broth at 24° C. Cells from a log-phase culture (2×10^7 to 4×10^7 cells/ml) were collected by centiifugation and re-suspended in fresh YPD containing 50 mM citric acid (pH 3.0 or pH 5.0), then placed in plastic tubes (Cryotubes, available from Nunc) at 2×10^7 to 3×10^7 cells/ml. After sealing with Parafilm, the tubes were put into titanium pressure vessels, followed by application of a desired hydrostatic pressure. The each required hydrostatic pressure was established within 2 min using a hand pump (available from Rigo-sha, Japan). To remove samples, the pressure was released in approximately 15 sec.
(§2) Cells originated fiom a log-phase culture (2×10^7 to 4×10^7 cells/ml) were incubated with 10 μM CFDA (Sigma, Cat. No. C-5041) in YPD containing 50 mM citric acid (pH 3.0), or 10 μM CDCFDA Molecular Probe, Cat. No. C-369) in YPD containing 50 mM citric acid (pH 5.0), respectively, under varying hydrostatic pressures ranging from ordinary pressure to 60 MPa. To analyze the dependence, on glucose, of pressure-induced dye-accumulation, vegetative cells were collected, washed twice in distilled water and starved for 30 min on ice. Then cells were suspended in MBA buffer (100 mM MES-Bis-Tris, 100 mM ammonium sulfate, pH 5.0), followed by addition of CDCFDA and application of a desired hydrostatic pressure of up to 6OMPa for one hour in the presence of D-glucose in various concentrations.
(§3) To analyze the effect of 2-deoxyglucose, cells were incubated with CDCFDA in MBA buffer containing 100 mM D-glucose. Unless otherwise specified, the final concentration of the fluorescent dye was 10 μM. After applying a desired hydrostatic pressure for one hour, the cells were washed twice with 10 mM MES-Bis-Tris (pH 5.0) and suspended in MB buffer. Fluorescence of the labeled cells emitted at 535 nm with excitation at 485 nm was detected using CytoFluor 2350 Plate Reader (available from Mlipore), or an RF5300PC spectrofluorometer (available from Shimazu, Japan). Fluorescence intensity (a. u.; arbitrary units) was recorded as the fluorescence of labeled cells minus the fluorescence of non-labeled cells for 10^7 cells.
(§4) Cells of the IFO2347 strain were incubated with 10 μM of CFDA or CDCFDA and cultured for one hour under each hydrostatic pressure condition. The stained cells were analyzed using Cytofluor 2350. The results thus obtained are plotted on FIG. 1A Similarly, cells of IFO10159 strain were inoculated with 10 μM of CFDA or CDCFDA and cultured for one hour under each hydrostatic pressure condition. The stained cells were analyzed using Cytofluor 2350. The results thus obtained are plotted on FIG. 1B. In FIGS. 1A and 1B, ◯ and ● represent cells stained with CF and those stained with CDCF, respectively.

Experiment [3] deals with IFO2347 strain. Described as above. It counts as cell-based, Saccharomyces cerevisiae. Particulars: 10 μM CFDA or CDCFDA, one hour, FIG. 1A. The method, then:
as §1, §2, §3, §4

In experiment [4] the test system is IFO2347 strain. The experiment in a line: Effects of hydrostatic pressure on hydrolysis of CDCFDA. It counts as cell-based, Saccharomyces cerevisiae. Particulars: for fluorescence intensity reached (hydrolysis under pressure): 50 μM CDCFDA, FIG. 3A. An excerpt: Fluorescence emission was examined under several hydrostatic pressures in a hydrostatic chamber provided with transparent windows which were made by sapphire (size: 10×8 mm). Each sample in a transparent cuvette was placed in the chamber which was set up in an RF5300PC spectrofluorometer. Fluorescence was emitted at 535 nm with excitation at 485 nm. The fluorescence intensity of the labeled cells was strong enough to be detected through the sapphire windows, even though the emission was reduced compared to the analysis without such a hydrostatic chamber equipped with a sapphire window. Each hydrostatic pressure was applied using a hand pump (available from Teramecs, Co. Ltd., Japan).
A cuvette containing the IFO2347 strain was fitted to a container, followed by addition of 50 μM CDCFDA, application of a hydrostatic pressure at a point P (see FIG. 3A), and examination of the fluorescence intensity change with time in a hydrostatic chamber equipped with RF5300 Fluorescent Spectrometer. The results obtained are plotted on FIG. 3A The fluorescence intensity increased to 300 a.u. and 130 a.u. when hydrostatic pressures of 0.1 MPa (ordinary pressure) and 60 MPa were applied, respectively (FIG. 3A). On the other hand, the fluorescence intensity increased to 770 a.u. when a pressure of 30 MPa was applied.
Cells of the IFD2347 strain were pre-incubated at several hydrostatic pressures for one hour in YPD culture medium (pH 5.0), and subsequently the pre-incubated cells were placed into a cuvette, followed by addition of 50 μM of CDCFDA to the pressure-adapted cells at ordinary pressure and examination of any change in the fluorescence intensity (the hydrolysis activity) by the same method as used above. The results thus obtained are plotted on FIG. 3B. […] Almost identical results were obtained when using CFDA (data not shown).

For the compound `O=CC[C@@H](O)[C@H](O)[C@H](O)CO` [2-deoxyglucose], the IC50 in the experiment on IFO2347 strain [1] was about 12 mM.

Consider Carboxydichlorofluorescein [CDCF], for which, in the experiment with IFO2347 strain [2] (0.1 MPa (ordinary pressure)), the “mean fluorescence of labeled cells” value stood at 26 a.u and the “peak fluorescence of labeled cells” value was determined as 23 a.u. The “increase of accumulation of CDCF” value in the experiment with IFO2347 strain [2] (30 MPa for one hour versus ordinary pressure) is recorded as “four to six folds”. For the same compound, in the experiment on IFO2347 strain [2] (30 MPa), the “mean fluorescence of labeled cells” value is 162 a.u and the “peak fluorescence of labeled cells” value is listed as 92 a.u. Besides, in the experiment with IFO2347 strain [2] (60 MPa), the enhancement of staining entry is given as “not enhanced”. For the same compound, in the experiment on IFO10159 strain, the “fluorescence intensity relative to non-labeled cells” value is on record as “about 2.5 fold” and the “total fluorescence intensity of labeled cells” value came out at 24.8 a. u. per 10^7 cells. The “hydrostatic pressure at which accumulation peaks” value in the experiment on IFO2347 strain [3] worked out at 30 MPa.

In the case of “Carboxydichlorofluorescein diacetate [CDCFDA]”, the “fluorescence intensity reached (hydrolysis under pressure)” value with IFO2347 strain [4] (0.1 MPa (ordinary pressure)) is reported as 300 a.u; in the experiment on IFO2347 strain [4] (30 MPa), 770 a.u; in the experiment with IFO2347 strain [4] (60 MPa), 130 a.u. Besides, in the experiment on IFO2347 strain [4] (pre-incubation one hour, 50 μM CDCFDA added at ordinary pressure, FIG. 3B), the “rate of hydrolysis by cells adapted to 30 MPa relative to cells adapted to 0.1 MPa or 60 MPa” value is on record as “approximately three times greater”.

As for Carboxyfluorescein [CF], in the experiment on IFO10159 strain, the “fluorescence intensity relative to non-labeled cells” value was found to be 1.6 fold and the “total fluorescence intensity of labeled cells” value stood at 15.5 a. u. per 10^7 cells. For the same compound, the “hydrostatic pressure at which accumulation peaks” value in the experiment with IFO2347 strain [3] is 40 MPa.
